The values that follow come from ChEMBL document CHEMBL5465560, “Selectivity Literature for EUbOPEN Chemogenomic Library” (2024).

Molecules are shown by their SMILES.

The test system of experiment [1] is T1, Receptor-type tyrosine-protein kinase FLT3 (Homo sapiens), P36888 [K663Q].
T1 sequence (whole entry): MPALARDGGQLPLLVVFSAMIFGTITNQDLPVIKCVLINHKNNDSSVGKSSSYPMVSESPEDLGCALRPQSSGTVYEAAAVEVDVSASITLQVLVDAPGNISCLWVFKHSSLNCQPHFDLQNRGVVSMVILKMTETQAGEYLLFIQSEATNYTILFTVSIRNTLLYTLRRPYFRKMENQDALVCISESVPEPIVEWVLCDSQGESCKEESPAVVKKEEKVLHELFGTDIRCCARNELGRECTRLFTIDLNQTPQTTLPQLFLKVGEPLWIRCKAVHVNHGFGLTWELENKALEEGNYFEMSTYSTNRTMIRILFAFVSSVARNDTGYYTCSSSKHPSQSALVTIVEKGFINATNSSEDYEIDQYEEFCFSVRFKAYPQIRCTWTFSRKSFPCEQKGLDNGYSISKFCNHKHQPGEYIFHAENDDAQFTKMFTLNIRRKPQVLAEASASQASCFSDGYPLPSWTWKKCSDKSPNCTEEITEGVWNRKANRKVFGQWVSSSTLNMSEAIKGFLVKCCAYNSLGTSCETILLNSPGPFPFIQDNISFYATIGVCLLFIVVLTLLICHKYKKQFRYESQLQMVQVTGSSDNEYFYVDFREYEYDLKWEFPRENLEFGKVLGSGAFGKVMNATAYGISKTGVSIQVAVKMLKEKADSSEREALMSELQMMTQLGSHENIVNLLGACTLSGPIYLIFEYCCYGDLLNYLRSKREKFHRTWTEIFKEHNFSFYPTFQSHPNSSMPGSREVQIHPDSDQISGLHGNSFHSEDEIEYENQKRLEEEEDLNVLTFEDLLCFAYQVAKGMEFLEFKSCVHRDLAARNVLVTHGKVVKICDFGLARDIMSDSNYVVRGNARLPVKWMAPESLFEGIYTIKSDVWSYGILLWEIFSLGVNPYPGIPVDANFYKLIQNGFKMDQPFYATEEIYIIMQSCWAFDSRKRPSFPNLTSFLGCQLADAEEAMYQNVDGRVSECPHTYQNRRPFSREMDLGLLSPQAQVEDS
The settings on record: at 10 µM.

Experiment [2] has as its target Protein kinase C delta type (Homo sapiens) (UniProt Q05655). The settings on record: at 10 µM.
The target of experiment [3] is Calcium/calmodulin-dependent protein kinase type 1D (Homo sapiens) (UniProt Q8IU85). The experiment can be described thus: Selectivity interaction (Kinase panel (DSF assay)) EUB0001558a CAMK1D. Background: DSF heats the sample and reads unfolding from a dye or from intrinsic fluorescence.
For experiment [4], the target named is T2, Aurora kinase A (Homo sapiens) (UniProt O14965).
T2 sequence (whole entry): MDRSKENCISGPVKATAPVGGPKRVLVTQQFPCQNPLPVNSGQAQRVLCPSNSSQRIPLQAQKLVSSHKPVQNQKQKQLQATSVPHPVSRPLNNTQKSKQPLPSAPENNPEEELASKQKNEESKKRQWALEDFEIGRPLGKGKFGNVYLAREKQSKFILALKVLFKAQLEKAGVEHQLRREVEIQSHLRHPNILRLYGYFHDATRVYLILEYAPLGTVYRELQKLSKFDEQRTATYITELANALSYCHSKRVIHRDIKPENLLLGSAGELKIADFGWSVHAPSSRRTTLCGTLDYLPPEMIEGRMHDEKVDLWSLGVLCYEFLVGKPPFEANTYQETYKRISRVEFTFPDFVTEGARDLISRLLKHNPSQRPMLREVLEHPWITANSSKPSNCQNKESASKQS
The settings on record: at 10 µM.

Experiment [5] has as its target cAMP-dependent protein kinase catalytic subunit alpha (Homo sapiens, UniProt P17612). Nature of the experiment: Selectivity interaction (Millipore kinase profiler) EUB0000124b PRKACA. The settings on record: at 10 µM.
For experiment [6], the target named is Tyrosine-protein kinase CSK (Homo sapiens) (UniProt P41240). Nature of the experiment: Selectivity interaction (Kinase screening (Upstate/Millipore)) EUB0000604a CSK.
In experiment [7] the target is Receptor-interacting serine/threonine-protein kinase 2 (Homo sapiens, UniProt O43353). Nature of the experiment: Selectivity interaction (KinomeScan (DiscoverX)) EUB0000045b RIPK2.
For experiment [8], the target named is T3, Activin receptor type-1B (Homo sapiens) (UniProt P36896).
T3 sequence (whole entry): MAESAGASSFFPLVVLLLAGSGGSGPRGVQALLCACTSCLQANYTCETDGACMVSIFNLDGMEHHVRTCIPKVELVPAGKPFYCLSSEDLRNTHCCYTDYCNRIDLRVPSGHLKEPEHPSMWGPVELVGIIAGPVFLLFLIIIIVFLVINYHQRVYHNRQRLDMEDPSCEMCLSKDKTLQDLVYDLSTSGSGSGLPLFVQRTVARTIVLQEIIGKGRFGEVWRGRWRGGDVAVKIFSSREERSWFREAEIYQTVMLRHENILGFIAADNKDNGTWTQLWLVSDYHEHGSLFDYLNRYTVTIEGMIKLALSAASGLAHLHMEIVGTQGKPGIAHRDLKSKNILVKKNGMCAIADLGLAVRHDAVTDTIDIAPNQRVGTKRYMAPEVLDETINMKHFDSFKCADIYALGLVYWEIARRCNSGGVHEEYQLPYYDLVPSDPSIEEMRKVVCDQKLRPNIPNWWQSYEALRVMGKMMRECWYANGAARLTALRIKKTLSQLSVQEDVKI
Nature of the experiment: Selectivity interaction (KinomeScan (DiscoverX)) EUB0000666a ACVR1B. The following applies: at 10 µM.

Experiment [9] has as its target T2, Aurora kinase A (Homo sapiens). Nature of the experiment: Selectivity interaction (ActivX KiNativ screen (kinase selectivity in THP-1 cell lysates)) EUB0000639a STK6. Type of experiment: subcellular. The following applies: lysate, at 1 µM.
Experiment [10] deals with Tyrosine-protein kinase HCK (Homo sapiens) (UniProt P08631). The experiment can be described thus: Selectivity interaction (ActivX KiNativ screen (kinase selectivity in THP-1 cell lysates)) EUB0000639a HCK. The settings on record: lysate. It is filed as subcellular.
Experiment [11] deals with Protein kinase C delta type (Homo sapiens) (UniProt Q05655). The experiment can be described thus: Selectivity interaction (Kinase panel (Invitrogen)) EUB0000639a PRKCD. The following applies: at 200 nM.
Experiment [12] has as its target Calcium/calmodulin-dependent protein kinase kinase 1 (Homo sapiens) (UniProt Q8N5S9). Nature of the experiment: Selectivity interaction (KinomeScan (DiscoverX)) EUB0000229b CAMKK1. The settings on record: at 10 µM.
For experiment [13], the target named is Ribosomal protein S6 kinase alpha-6 (Homo sapiens, UniProt Q9UK32). The experiment can be described thus: Selectivity interaction (KinomeScan (DiscoverX)) EUB0001619a RPS6KA6. The following applies: at 1 µM.
Experiment [14] has as its target 5'-AMP-activated protein kinase catalytic subunit alpha-1 (Homo sapiens, UniProt Q13131). The experiment can be described thus: Selectivity interaction (ActivX KiNativ screen (ex vivo kinase selectivity in human PBMCs)) EUB0001619a PRKAA1. The settings on record: PBMC, at 1 µM. It is filed as cell-based.
For experiment [15], the target named is Calcium/calmodulin-dependent protein kinase kinase 1 (Homo sapiens) (UniProt Q8N5S9). The experiment can be described thus: Selectivity interaction (KinomeScan (DiscoverX)) EUB0000618a CAMKK1. The settings on record: at 10 µM.
Chain of Calcium/calmodulin-dependent protein kinase kinase 1 (Homo sapiens) (Q8N5S9 whole entry, looked up): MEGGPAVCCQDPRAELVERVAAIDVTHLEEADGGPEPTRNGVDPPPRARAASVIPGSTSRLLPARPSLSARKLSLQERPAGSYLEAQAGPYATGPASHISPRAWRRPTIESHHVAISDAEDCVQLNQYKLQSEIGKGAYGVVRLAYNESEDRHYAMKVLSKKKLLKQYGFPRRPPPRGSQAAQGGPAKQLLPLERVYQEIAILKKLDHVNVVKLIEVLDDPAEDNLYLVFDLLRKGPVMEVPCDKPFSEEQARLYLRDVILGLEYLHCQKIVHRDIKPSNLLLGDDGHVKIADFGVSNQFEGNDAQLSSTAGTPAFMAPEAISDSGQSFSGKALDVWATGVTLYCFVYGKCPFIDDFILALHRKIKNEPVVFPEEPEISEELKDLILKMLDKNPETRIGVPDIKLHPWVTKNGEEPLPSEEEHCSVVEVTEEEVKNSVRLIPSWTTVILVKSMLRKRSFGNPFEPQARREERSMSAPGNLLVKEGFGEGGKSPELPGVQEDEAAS

Chain of Tyrosine-protein kinase HCK (Homo sapiens) (P08631 2-526 limits assumed): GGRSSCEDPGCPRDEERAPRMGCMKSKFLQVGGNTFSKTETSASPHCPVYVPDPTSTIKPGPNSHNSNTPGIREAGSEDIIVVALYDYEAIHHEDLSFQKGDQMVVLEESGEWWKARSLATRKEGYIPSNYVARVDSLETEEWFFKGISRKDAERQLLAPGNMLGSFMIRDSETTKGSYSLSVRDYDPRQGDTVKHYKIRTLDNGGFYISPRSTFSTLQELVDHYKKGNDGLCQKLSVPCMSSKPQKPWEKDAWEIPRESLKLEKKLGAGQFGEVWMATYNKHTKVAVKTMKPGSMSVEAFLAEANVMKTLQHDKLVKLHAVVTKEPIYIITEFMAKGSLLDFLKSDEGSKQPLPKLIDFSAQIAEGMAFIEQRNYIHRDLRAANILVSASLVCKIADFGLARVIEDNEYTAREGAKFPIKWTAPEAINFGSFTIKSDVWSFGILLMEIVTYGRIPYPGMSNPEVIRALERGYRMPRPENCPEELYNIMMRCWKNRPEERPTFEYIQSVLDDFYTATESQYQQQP
Chain of Receptor-interacting serine/threonine-protein kinase 2 (O43353 whole entry): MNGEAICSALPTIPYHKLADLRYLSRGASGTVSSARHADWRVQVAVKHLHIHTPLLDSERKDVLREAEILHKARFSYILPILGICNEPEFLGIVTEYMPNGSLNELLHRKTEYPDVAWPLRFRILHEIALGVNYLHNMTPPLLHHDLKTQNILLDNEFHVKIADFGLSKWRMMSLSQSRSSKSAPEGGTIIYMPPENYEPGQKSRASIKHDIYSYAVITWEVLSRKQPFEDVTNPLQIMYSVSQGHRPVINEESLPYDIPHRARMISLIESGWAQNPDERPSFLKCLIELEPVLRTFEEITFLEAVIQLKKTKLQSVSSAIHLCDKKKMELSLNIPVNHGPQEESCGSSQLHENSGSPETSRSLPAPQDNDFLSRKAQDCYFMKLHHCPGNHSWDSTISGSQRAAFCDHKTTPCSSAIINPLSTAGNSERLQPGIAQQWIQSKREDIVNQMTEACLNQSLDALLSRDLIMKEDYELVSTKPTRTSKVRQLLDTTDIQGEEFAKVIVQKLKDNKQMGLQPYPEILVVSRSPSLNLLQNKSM
Chain of Protein kinase C delta type (Homo sapiens) (Q05655 whole entry, looked up): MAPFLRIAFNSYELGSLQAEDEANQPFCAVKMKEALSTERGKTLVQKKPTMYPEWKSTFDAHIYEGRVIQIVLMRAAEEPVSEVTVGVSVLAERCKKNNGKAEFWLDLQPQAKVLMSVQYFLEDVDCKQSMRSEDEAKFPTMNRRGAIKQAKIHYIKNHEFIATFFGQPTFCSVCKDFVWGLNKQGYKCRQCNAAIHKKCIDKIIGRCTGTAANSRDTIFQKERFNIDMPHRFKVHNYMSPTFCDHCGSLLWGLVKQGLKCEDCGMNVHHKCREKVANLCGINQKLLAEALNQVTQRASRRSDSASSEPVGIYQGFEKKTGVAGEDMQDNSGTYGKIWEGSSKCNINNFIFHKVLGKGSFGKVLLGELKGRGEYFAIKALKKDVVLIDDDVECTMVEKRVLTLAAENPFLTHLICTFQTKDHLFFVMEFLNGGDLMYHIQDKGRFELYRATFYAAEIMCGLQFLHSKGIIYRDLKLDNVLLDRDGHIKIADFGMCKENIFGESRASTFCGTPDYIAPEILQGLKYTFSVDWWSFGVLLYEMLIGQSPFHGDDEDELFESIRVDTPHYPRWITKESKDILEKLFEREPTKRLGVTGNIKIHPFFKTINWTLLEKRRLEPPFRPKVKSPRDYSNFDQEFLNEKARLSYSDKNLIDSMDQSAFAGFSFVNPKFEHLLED
Chain of Tyrosine-protein kinase CSK (Homo sapiens) (P41240 2-450 limits assumed): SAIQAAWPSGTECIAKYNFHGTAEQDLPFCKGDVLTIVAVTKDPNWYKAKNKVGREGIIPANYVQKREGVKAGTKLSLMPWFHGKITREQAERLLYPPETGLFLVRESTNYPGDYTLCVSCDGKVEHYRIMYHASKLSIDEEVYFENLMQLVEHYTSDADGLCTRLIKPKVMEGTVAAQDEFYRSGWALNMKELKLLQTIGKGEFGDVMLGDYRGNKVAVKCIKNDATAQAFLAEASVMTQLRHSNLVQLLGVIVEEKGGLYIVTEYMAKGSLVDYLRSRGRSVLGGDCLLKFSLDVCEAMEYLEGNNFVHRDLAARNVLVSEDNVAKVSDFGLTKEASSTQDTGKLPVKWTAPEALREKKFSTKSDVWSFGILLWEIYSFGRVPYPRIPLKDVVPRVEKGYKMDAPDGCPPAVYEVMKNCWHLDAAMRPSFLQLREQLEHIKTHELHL
Chain of Calcium/calmodulin-dependent protein kinase type 1D (Homo sapiens) (Q8IU85 whole entry, looked up): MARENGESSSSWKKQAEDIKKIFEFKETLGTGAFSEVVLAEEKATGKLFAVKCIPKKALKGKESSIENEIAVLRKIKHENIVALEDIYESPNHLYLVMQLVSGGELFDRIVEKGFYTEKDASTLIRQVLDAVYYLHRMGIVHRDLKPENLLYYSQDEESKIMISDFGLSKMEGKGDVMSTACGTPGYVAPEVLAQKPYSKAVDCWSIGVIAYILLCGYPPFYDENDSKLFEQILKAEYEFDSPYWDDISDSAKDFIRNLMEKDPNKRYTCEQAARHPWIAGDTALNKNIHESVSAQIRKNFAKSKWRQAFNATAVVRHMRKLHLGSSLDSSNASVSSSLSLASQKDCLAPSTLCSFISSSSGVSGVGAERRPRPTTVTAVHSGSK
Chain of 5'-AMP-activated protein kinase catalytic subunit alpha-1 (Q13131 whole entry, looked up): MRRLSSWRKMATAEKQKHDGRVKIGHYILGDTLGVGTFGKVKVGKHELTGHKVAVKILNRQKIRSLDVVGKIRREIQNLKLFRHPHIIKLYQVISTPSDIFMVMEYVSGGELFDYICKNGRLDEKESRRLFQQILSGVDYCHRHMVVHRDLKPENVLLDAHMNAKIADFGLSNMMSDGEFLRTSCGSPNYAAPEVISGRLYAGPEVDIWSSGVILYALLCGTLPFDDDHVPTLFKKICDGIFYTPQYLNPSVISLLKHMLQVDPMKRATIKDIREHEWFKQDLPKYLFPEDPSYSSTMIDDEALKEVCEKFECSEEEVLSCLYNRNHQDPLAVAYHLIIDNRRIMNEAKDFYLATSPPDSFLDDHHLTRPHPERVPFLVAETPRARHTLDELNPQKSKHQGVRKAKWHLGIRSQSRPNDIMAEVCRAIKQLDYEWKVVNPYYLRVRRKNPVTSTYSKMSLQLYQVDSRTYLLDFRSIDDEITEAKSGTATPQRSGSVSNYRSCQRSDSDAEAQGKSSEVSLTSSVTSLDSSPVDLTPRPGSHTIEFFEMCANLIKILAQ
Chain of Ribosomal protein S6 kinase alpha-6 (Q9UK32 whole entry): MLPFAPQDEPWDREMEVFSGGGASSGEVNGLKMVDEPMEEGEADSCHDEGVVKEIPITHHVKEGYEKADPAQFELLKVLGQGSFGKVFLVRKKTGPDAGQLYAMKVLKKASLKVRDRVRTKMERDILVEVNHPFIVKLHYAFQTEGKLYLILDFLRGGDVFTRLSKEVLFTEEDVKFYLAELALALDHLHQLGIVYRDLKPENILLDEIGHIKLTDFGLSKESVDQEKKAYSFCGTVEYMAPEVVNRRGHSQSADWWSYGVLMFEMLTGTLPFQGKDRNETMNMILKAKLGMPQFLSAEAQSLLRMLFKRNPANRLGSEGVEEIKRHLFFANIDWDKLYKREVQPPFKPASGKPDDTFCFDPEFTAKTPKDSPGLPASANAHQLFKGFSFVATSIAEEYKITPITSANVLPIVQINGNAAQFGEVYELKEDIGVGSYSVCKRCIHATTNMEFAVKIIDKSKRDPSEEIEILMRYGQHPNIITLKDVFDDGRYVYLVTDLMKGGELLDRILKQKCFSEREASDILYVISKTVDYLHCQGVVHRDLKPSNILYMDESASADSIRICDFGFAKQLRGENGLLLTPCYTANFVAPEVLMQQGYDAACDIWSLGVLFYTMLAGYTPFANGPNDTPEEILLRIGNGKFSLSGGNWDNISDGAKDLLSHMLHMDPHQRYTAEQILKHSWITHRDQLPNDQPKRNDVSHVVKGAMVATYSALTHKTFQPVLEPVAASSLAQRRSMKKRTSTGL

Regarding `Cc1cc([C@@H](C)Nc2ccccc2C(=O)O)c2nc(N3CCOCC3)cc(=O)n2c1` [AZD-6482], the values for the % of control in experiment [1] and in experiment [2] were 13% and 82%, respectively. Consider `CC(C)(O)[C@H](F)CN1Cc2cc(NC(=O)c3cnn4cccnc34)c(N3CCOCC3)cc2C1=O`, for which the dTM in [3] was -0.1 K. In experiment [4], `CCN(CC)CCCCNc1ncc2cc(-c3cc(OC)cc(OC)c3)c(NC(=O)NC(C)(C)C)nc2n1` showed a % of control of 100%.

As to `CC(=O)Nc1cccc(-n2c(=O)n(C3CC3)c(=O)c3c(Nc4ccc(I)cc4F)n(C)c(=O)c(C)c32)c1`, the % of control in [5] was 98%. In the case of `Cc1cnc(Nc2ccc(F)cc2Cl)nc1-c1c[nH]c(C(=O)N[C@H](CO)c2cccc(Cl)c2)c1`, the % of inhibition in experiment [6] amounted to 0%.

As to `C=CC(=O)Nc1cc(-n2c(=O)ccc3cnc4ccc(-c5ccc(NS(C)(=O)=O)cc5)cc4c32)ccc1C`, the % of control in [7] (at 1 µM) turned out to be 100%; in experiment [7] (at 10 µM), 92%.

In turn, `O=C(NOC[C@H](O)CO)c1ccc(F)c(F)c1Nc1ccc(I)cc1F` yielded a % of control in [8] of 100%. `CC[C@@H]1[C@H](F)C(=O)N[C@@H]1COc1nccc2cc(C(N)=O)c(OC)cc12` [ZIMLOVISERTIB]: the % of inhibition is 17.4% in [9]; -5.9% in experiment [10] (at 0.01 µM); -8.6% in [10] (at 0.04 µM); -9.9% in experiment [10] (at 0.2 µM); -4.8% in experiment [10] (at 1 µM); -3.1% in experiment [10] (at 5 µM). For the same compound, in [11], the % of inhibition is -5.07%.

Turning to `COc1cc(N(C)c2ccnc3ccc(C(F)(F)F)cc23)cc(OC)c1OC`, the % binding in [12] is 97%.

Take `N#Cc1cccc(-c2c[nH]c3ncnc(N4CCOCC4)c23)c1`: in experiment [13], the % of control turned out to be 9.8%. Further, the % of inhibition in [14] is 16%. Regarding `O[C@H]1CC[C@H](Nc2ncc3nc(Nc4c(F)cc(F)cc4F)n([C@H]4CCOC4)c3n2)CC1`, the % of control in experiment [15] amounted to 100%.
